Assay [1] concerns Akt (Ser473), endothelial NOS (Ser1177). Kind of assay: immunoblot of phospho-Akt and phospho-eNOS in left ventricle after ischemia-reperfusion. Format: in vivo, rat. The method, then:
To determine whether the cardioprotective effect of parstatin (1-26) is mediated through the PI3K/Akt pathway, rats were treated with wortmannin (15 μg/Kg, a potent and specific PI3K inhibitor) alone or in combination with parstatin fragment 1-26 (1 μg/Kg). Wortmannin abrogated the cardioprotective effects of parstatin (1-26) (FIG. 24B). In addition, the left ventricular free wall tissue was homogenized and immunoblot analysis was performed using an anti-phospho-Akt (Ser473) primary antibody (Cell Signaling Technology, Danvers, Mass.). […] Co-treatment with wortmannin blocked parstastin (1-26)-mediated Akt phorsphorylation (FIG. 24C).
To determine whether parstatin (1-26) protects the heart by a mechanism involving nitric oxide synthase (NOS), rats were treated with L-NMA (15 μg/Kg, a general NOS inhibitor), with or without parstatin (1-26) (1 μg/Kg) prior to ischemia. […] The role of parstatin (1-26) in endothelial NOS activation was further evaluated by measuring the phosphorylation of Ser1177. In these experiments, the left ventricular free wall tissue was homogenized and immunoblot analysis was performed using an anti-phospho-endothelial NOS (Ser1177) primary antibody (Cell Signaling Technology, Danvers, Mass.). […] In addition, nitrite and nitrate content, a marker of endothelial NOS activity, was measured from both ischemic and non-ischemic tissues. Ischemia and 120 min reperfusion caused an increase in the production of NO in the ischemic tissue from the control group when compared to the sham group (FIG. 25D). […] Pre-ischemic treatment with parstatin (1-26) further increased NO content in the ischemic tissue by an additional 1.4-fold over control values and 2.0-fold over sham treated values.
In general terms: Immunoblotting shows a protein as a band on a membrane.

The subject of assay [2] is renal ischemia-reperfusion injury in Wistar rats.
Protocol: Pathogen-free male Wistar rats weighting 250-300 g were used and treated in compliance with the “Guide for the Care and Use of Laboratory Animals” published by the US National Institutes of Health (NIH Publication NO. 85-23, revised 1996).
Rats were anesthetized with intramuscular injection of ketamine (25 mg/Kg) and xylazine hydrochloride (10 mg/Kg). After a midline laparotomy, the renal pedicles were identified and bilaterally occluded for a period of 45 min using nontraumatic microaneurysm clamps. The presence of ischemia was visually confirmed by observing blanching of the kidneys. Sham-operated rats were subjected to identical surgical procedures without causing renal ischemia by application of microaneurysm clamps. At the end of ischemia period the clamps were removed and renal reperfusion was established. All rats were killed 4 hours after the initiation of reperfusion.
Urine was collected during reperfusion, and at the end of the experiments blood samples were taken and analyzed for biochemical markers of renal impairment. Serum creatinine levels were measured as an indicator of glomerular function. Urine concentrations of Na^+ were determined and used in conjunction with serum Na^+ concentrations to estimate FENa which was used as a sensitive indicator of tubular function.
For histological assessment of renal ischemia-reperfusion injury, the rat kidneys were removed 4 hours after reperfusion, fixed in 10% formalin, embedded in paraffin, sectioned (5-μm thicknesses), and stained with haematoxylin and eosin. Tubular injury was identified by the presence of any of flattened tubular cells, loss of brush border, and cast formation. Ten high-powered fields (hpf's; ×400 magnification) from the outer medulla and corticomedullary junction were examined from each animal to determine the percentage of tubules showing evidence of injury and scored according to the following scale: 0, no injury; 1, less than 10%; 2, 10% to 25%; 3, 26% to 75%; 4, greater than 75%. The 10 scores were averaged to give the tubular injury score for each specimen.
The mark [3] stands for this setting: parstatin (1-26) IV 10 seconds after initiation of reperfusion.

Where two headings read alike, the source gives them in different places.

Turning to “MGPRRLLLVAACFSLCGPLLSARTRA (listed as Homo sapiens) [parstatin (1-26)]”, the “phosphorylation of Akt/Ser473” value in assay [1] (1 μg/kg pre-ischemic, 5 min reperfusion, vs control rats) is on record as “increased phosphorylation”. In assay [1] (1 μg/kg, 5 min reperfusion), the “endothelial NOS phosphorylation (Ser1177)” value is “increased endothelial NOS phosphorylation”. For the same sequence, the “Ser1177 phosphorylation with wortmannin” value in assay [1] (wortmannin) was “blocked”. In addition, the “Akt phosphorylation with wortmannin co-treatment” value in assay [1] (wortmannin 15 μg/kg) was “blocked”. For the same sequence, the “histological scoring of renal injury” value in assay [2] (10 μg/Kg) was “significantly reduced”. In assay [2] (10 μg/Kg IV pre-ischemic), the “reduction of FENa” value came out at 66% and the “reduction of serum creatinine” value amounted to 27%. Besides, in assay [2] (setting [3]), the “reduction of FENa” value worked out at 72% and the “reduction of serum creatinine” value was 30%.

The values are drawn from patent US9180163B2, “Parstatin peptides” (priority 2009, dated 2015).
